Organism: Rattus norvegicus
Test: Open TG-GATES - Regimen: Daily Repeat
Format: toxicity, organism-based, Sprague-Dawley
Set-up: regimen Daily Repeat, gender Male, age 6 weeks
Details: in vivo, po, 50 mg/kg, route gavage, dose level Low; for APTT / Bas / Eos / Fbg / Hb / Ht / Lym / MCH / MCHC / MCV / Mono / Neu / PT / Plat / RBC / Ret / WBC: tissue Blood; for KIDNEY_L / KIDNEY_R / KIDNEY_TOTAL: tissue Kidney; for LIVER: tissue Liver; for A/G / ALP / ALT / AST / BUN / CRE / Ca / Cl / DBIL / GLC / IP / K / LDH / Na / PL / RALB / TBIL / TC / TG / TP / gamma-GTP: tissue Plasma

CC(=O)Oc1cc(C(C)C)c(OCCN(C)C)cc1C [MOXISYLYTE]
TERMINAL_BW (72 h, time 3 day): 225.1 g | APTT (72 h, time 3 day): 21.1 s | Bas (72 h, time 3 day): 0% | Eos (72 h, time 3 day): 1% | Fbg (72 h, time 3 day): 329.8 mg/dL | Hb (72 h, time 3 day): 13.7 g/dL | Ht (72 h, time 3 day): 39.1% | Lym (72 h, time 3 day): 80.6% | MCH (72 h, time 3 day): 21.5 pg | MCHC (72 h, time 3 day): 35% | MCV (72 h, time 3 day): 61.5 fL | Mono (72 h, time 3 day): 2.2% | Neu (72 h, time 3 day): 14.6% | PT (72 h, time 3 day): 16.2 s | Plat (72 h, time 3 day): 126.9 x10_4/uL | RBC (72 h, time 3 day): 635.6 x10_4/ul | Ret (72 h, time 3 day): 6% | WBC (72 h, time 3 day): 99.3 x10_2/uL | KIDNEY_L (72 h, time 3 day): 1 g | KIDNEY_R (72 h, time 3 day): 1 g | KIDNEY_TOTAL (72 h, time 3 day): 1.9 g | LIVER (72 h, time 3 day): 10.4 g | A/G (72 h, time 3 day): 1.2 | ALP (72 h, time 3 day): 1826.8 IU/L | ALT (72 h, time 3 day): 42.8 IU/L | AST (72 h, time 3 day): 72.2 IU/L | BUN (72 h, time 3 day): 16.2 mg/dL | CRE (72 h, time 3 day): 0.2 mg/dL | Ca (72 h, time 3 day): 11 mg/dL | Cl (72 h, time 3 day): 106.4 meq/L | DBIL (72 h, time 3 day): 0.004 mg/dL | GLC (72 h, time 3 day): 178.8 mg/dL | IP (72 h, time 3 day): 7.4 mg/dL | K (72 h, time 3 day): 4.5 meq/L | LDH (72 h, time 3 day): 242.8 IU/L | Na (72 h, time 3 day): 141.4 meq/L | PL (72 h, time 3 day): 158.8 mg/dL | RALB (72 h, time 3 day): 3.1 g/dL | TBIL (72 h, time 3 day): 0.004 mg/dL | TC (72 h, time 3 day): 78.2 mg/dL | TG (72 h, time 3 day): 108.8 mg/dL | TP (72 h, time 3 day): 5.7 g/dL | gamma-GTP (72 h, time 3 day): 1.2 IU/L | TERMINAL_BW ([…], time 7 day): 248.6 g | TERMINAL_BW ([…], time 14 day): 317.3 g | TERMINAL_BW ([…], time 28 day): 361 g | APTT ([…], time 7 day): 21.8 s | Bas ([…], time 7 day): 0% | Eos ([…], time 7 day): 0.6% | Fbg ([…], time 7 day): 312.6 mg/dL | Hb ([…], time 7 day): 13.7 g/dL | Ht ([…], time 7 day): 39.2% | Lym ([…], time 7 day): 79.6% | MCH ([…], time 7 day): 20.9 pg | MCHC ([…], time 7 day): 35.1% | MCV ([…], time 7 day): 59.5 fL | Mono ([…], time 7 day): 2.2% | Neu ([…], time 7 day): 16.8% | PT ([…], time 7 day): 15.9 s | Plat ([…], time 7 day): 122.1 x10_4/uL | RBC ([…], time 7 day): 659 x10_4/ul | Ret ([…], time 7 day): 4.9% | WBC ([…], time 7 day): 88.2 x10_2/uL | APTT ([…], time 14 day): 20.8 s | Bas ([…], time 14 day): 0% | Eos ([…], time 14 day): 1% | Fbg ([…], time 14 day): 308.8 mg/dL | Hb ([…], time 14 day): 14.2 g/dL | Ht ([…], time 14 day): 39.3% | Lym ([…], time 14 day): 77.8% | MCH ([…], time 14 day): 20.7 pg | MCHC ([…], time 14 day): 36.2% | MCV ([…], time 14 day): 57.2 fL | Mono ([…], time 14 day): 2.4% | Neu ([…], time 14 day): 18% | PT ([…], time 14 day): 16.1 s | Plat ([…], time 14 day): 108.1 x10_4/uL | RBC ([…], time 14 day): 686.8 x10_4/ul | Ret ([…], time 14 day): 5.1% | WBC ([…], time 14 day): 113.2 x10_2/uL | APTT ([…], time 28 day): 24.3 s | Bas ([…], time 28 day): 0% | Eos ([…], time 28 day): 1.2% | Fbg ([…], time 28 day): 324.8 mg/dL | Hb ([…], time 28 day): 14.9 g/dL | Ht ([…], time 28 day): 41.8% | Lym ([…], time 28 day): 84% | MCH ([…], time 28 day): 19.3 pg | MCHC ([…], time 28 day): 35.6% | MCV ([…], time 28 day): 54.3 fL | Mono ([…], time 28 day): 2% | Neu ([…], time 28 day): 12% | PT ([…], time 28 day): 16 s | Plat ([…], time 28 day): 101.5 x10_4/uL | RBC ([…], time 28 day): 770 x10_4/ul | Ret ([…], time 28 day): 2.5% | WBC ([…], time 28 day): 142.9 x10_2/uL | KIDNEY_L ([…], time 7 day): 1.1 g | KIDNEY_R ([…], time 7 day): 1.1 g | KIDNEY_TOTAL ([…], time 7 day): 2.2 g | KIDNEY_L ([…], time 14 day): 1.3 g | KIDNEY_R ([…], time 14 day): 1.2 g | KIDNEY_TOTAL ([…], time 14 day): 2.5 g | KIDNEY_L ([…], time 28 day): 1.4 g | KIDNEY_R ([…], time 28 day): 1.4 g | KIDNEY_TOTAL ([…], time 28 day): 2.8 g | LIVER ([…], time 7 day): 11.2 g | LIVER ([…], time 14 day): 14 g | LIVER ([…], time 28 day): 14.8 g | A/G ([…], time 7 day): 1.2 | ALP ([…], time 7 day): 1475.2 IU/L | ALT ([…], time 7 day): 45 IU/L | AST ([…], time 7 day): 82.6 IU/L | BUN ([…], time 7 day): 16.6 mg/dL | CRE ([…], time 7 day): 0.2 mg/dL | Ca ([…], time 7 day): 10.6 mg/dL | Cl ([…], time 7 day): 106.6 meq/L | DBIL ([…], time 7 day): 0 mg/dL | GLC ([…], time 7 day): 179.4 mg/dL | IP ([…], time 7 day): 6.8 mg/dL | K ([…], time 7 day): 4.1 meq/L | LDH ([…], time 7 day): 202 IU/L | Na ([…], time 7 day): 141.6 meq/L | PL ([…], time 7 day): 146.6 mg/dL | RALB ([…], time 7 day): 3 g/dL | TBIL ([…], time 7 day): 0 mg/dL | TC ([…], time 7 day): 70.6 mg/dL | TG ([…], time 7 day): 144 mg/dL | TP ([…], time 7 day): 5.5 g/dL | gamma-GTP ([…], time 7 day): 1.2 IU/L | A/G ([…], time 14 day): 1.2 | ALP ([…], time 14 day): 1349.4 IU/L | ALT ([…], time 14 day): 45.8 IU/L | AST ([…], time 14 day): 77.8 IU/L | BUN ([…], time 14 day): 19.8 mg/dL | CRE ([…], time 14 day): 0.2 mg/dL | Ca ([…], time 14 day): 10.8 mg/dL | Cl ([…], time 14 day): 107 meq/L | DBIL ([…], time 14 day): 0 mg/dL | GLC ([…], time 14 day): 186.6 mg/dL | IP ([…], time 14 day): 6.3 mg/dL | K ([…], time 14 day): 4.4 meq/L | LDH ([…], time 14 day): 256 IU/L | Na ([…], time 14 day): 141 meq/L | PL ([…], time 14 day): 156 mg/dL | RALB ([…], time 14 day): 3.2 g/dL | TBIL ([…], time 14 day): 0.002 mg/dL | TC ([…], time 14 day): 73.2 mg/dL | TG ([…], time 14 day): 184.6 mg/dL | TP ([…], time 14 day): 5.8 g/dL | gamma-GTP ([…], time 14 day): 1.4 IU/L | A/G ([…], time 28 day): 1 | ALP ([…], time 28 day): 1078.4 IU/L | ALT ([…], time 28 day): 40.2 IU/L | AST ([…], time 28 day): 66.8 IU/L | BUN ([…], time 28 day): 17 mg/dL | CRE ([…], time 28 day): 0.2 mg/dL | Ca ([…], time 28 day): 10.4 mg/dL | Cl ([…], time 28 day): 106.6 meq/L | DBIL ([…], time 28 day): 0.002 mg/dL | GLC ([…], time 28 day): 184.4 mg/dL | IP ([…], time 28 day): 6.4 mg/dL | K ([…], time 28 day): 4.2 meq/L | LDH ([…], time 28 day): 147 IU/L | Na ([…], time 28 day): 142 meq/L | PL ([…], time 28 day): 151.2 mg/dL | RALB ([…], time 28 day): 3 g/dL | TBIL ([…], time 28 day): 0.002 mg/dL | TC ([…], time 28 day): 70 mg/dL | TG ([…], time 28 day): 170.4 mg/dL | TP ([…], time 28 day): 6 g/dL | gamma-GTP ([…], time 28 day): 2 IU/L
